{"source": "patent US8883745B2", "about": "“C—glycolipids with enhanced Th-1 profile” (New York University, priority 2006, dated 2014)", "key": {"[1]": {"system": "IL-12", "experiment": "IL-12 levels in sera upon i.v. glycolipid administration to BALB/c mice (ELISA)", "assay_type": "in vivo", "design": "IL-12 levels, test 1 / IL-12 levels, test 2 / IL-12 levels, average / IL-12 levels, Total: unit not given here", "protocol": "(§1) Five- to six-week-old female C57BL/6 mice and BALB/c mice were purchased from Taconic. Each glycolipid was stored at 1 mg/ml in 100% DMSO. Mice were injected intravenously with 1 μg of each glyocolipid diluted in 200 μL sterile phosphate buffered saline (PBS). At indicated time points, sera were collected from each animal, and concentrations of IFN-γ, IL-4, and IL-12 in the sera were evaluated by enzyme-linked immunosorbent assay (ELISA). Serum concentrations of IFN-γ, IL-4, and IL-12 were evaluated using an ELISA kit (eBioscience, San Diego, Calif.). Briefly, 96 well flat-bottom ELISA plates (NUNC) were coated with capture antibody according to the manufacture's recommendation and incubated overnight at 4° C. The plates were washed with PBS+0.05% Tween 20 (PBS-T), then incubated with manufacturer provided blocking solution for 1 hr at room temperature to block non-specific binding sites. After washing with PBS-T, sera diluted 1:10 was added to the wells and incubated for 2 hrs at room temperature. Plates were then incubated at room temperature for 1 hr with biotintylated detection antibody, washed, incubated with avidin conjugated to horse radish peroxidase (HRP) for 30 min at room temperature, washed, and finally incubated with tetramethylbenzidine substrate solution in the dark for 10 minutes at room temperature. The antibodies, avidin-HRP, and substrate solution were all diluted according to the manufacture's recommendation. Reactions were stopped with 2.0N sulfuric acid and the cytokine concentration in each well was determined by comparing the absorbance at 450 nm in each well to known standards. The levels of Th1- and Th2-type cytokines were determined in two different genetic backgrounds, i.e., in C57BL/6 mice and BALB/c mice. The following compounds were administered: A=compound (A-1 trans-conformer), B=compound (A-2), C=compound (A-3), D=compound (A-4), E=compound (A-5), Z=control (PBS alone), CRONY=α-C-GalCer, KRN=α-GalCer, GCK109 (A-1 trans-conformer), GCK151 (A-1 cis-conformer), GCK152 (A-7). The levels of cytokines were measured at 0, 2, 6, 12, 24, 48, and 72 hours after the compound administration. The levels of Th1-type cytokines IFN-γ and IL-12 are summarized in FIGS. 2A-C and 3A-C, respectively. Table 7 provides IFN-γ/IL-4 and IL-12/IL-4 ratios for various compounds, which can be used as indicators of their ability to selectively stimulate Th1-type immune responses."}, "[2]": {"conditions": "rodents and monkeys, independently of dosage; cited from earlier work"}, "[3]": {"experiment": "Solubility in an aqueous solution", "assay_type": "physicochemical"}, "[4]": {"system": "IL-4", "experiment": "IL-4 levels in sera upon i.v. glycolipid administration to BALB/c mice (ELISA)", "assay_type": "in vivo", "design": "unit not given here", "protocol": "as §1"}, "[5]": {"system": "solid tumors", "conditions": "Phase I study; cited from earlier work"}, "[6]": {"system": "rodent malaria parasites, P. yoeli and P. berghei", "conditions": "administration to mice; cited from earlier work"}}, "data": [{"smiles": "CCCCCCCCCCCCCCCCCCCCCCCCCC(=O)N[C@@H](CO[C@H]1O[C@H](CO)[C@H](O)[C@H](O)[C@H]1O)[C@H](O)[C@H](O)CCCCCCCCCCCCCC", "note": "[KRN, (2S,3S,4R)-1-O-(α-D-galactopyranosyl)-2-(N-hexacosanoylamino)-1,3,4-,-octadecanetriol, reference compound]", "values": [{"measurement": "IL-12/IL-4 (BALB/c)", "setting": "[1]; ratio calculated from Tables 1-6", "result": 2}, {"measurement": "IL-12 levels, average", "setting": "[1]; serum, hour 0", "result": 5}, {"measurement": "IL-12 levels, test 1", "setting": "[1]; serum, hour 0", "result": 5}, {"measurement": "IL-12 levels, test 2", "setting": "[1]; serum, hour 0", "result": 5}, {"measurement": "IL-12 levels, average", "setting": "[1]; serum, hour 2", "result": 124}, {"measurement": "IL-12 levels, test 1", "setting": "[1]; serum, hour 2", "result": 69}, {"measurement": "IL-12 levels, test 2", "setting": "[1]; serum, hour 2", "result": 179}, {"measurement": "IL-12 levels, average", "setting": "[1]; serum, hour 6", "result": 3067.5}, {"measurement": "IL-12 levels, test 1", "setting": "[1]; serum, hour 6", "result": 2567}, {"measurement": "IL-12 levels, test 2", "setting": "[1]; serum, hour 6", "result": 3568}, {"measurement": "IL-12 levels, average", "setting": "[1]; serum, hour 12", "result": 437.5}, {"measurement": "IL-12 levels, test 1", "setting": "[1]; serum, hour 12", "result": 282}, {"measurement": "IL-12 levels, test 2", "setting": "[1]; serum, hour 12", "result": 593}, {"measurement": "IL-12 levels, average", "setting": "[1]; serum, hour 24", "result": 265.5}, {"measurement": "IL-12 levels, test 1", "setting": "[1]; serum, hour 24", "result": 119}, {"measurement": "IL-12 levels, test 2", "setting": "[1]; serum, hour 24", "result": 412}, {"measurement": "IL-12 levels, average", "setting": "[1]; serum, hour 48", "result": 68}, {"measurement": "IL-12 levels, test 1", "setting": "[1]; serum, hour 48", "result": 57}, {"measurement": "IL-12 levels, test 2", "setting": "[1]; serum, hour 48", "result": 79}, {"measurement": "IL-12 levels, average", "setting": "[1]; serum, hour 72", "result": 61}, {"measurement": "IL-12 levels, test 1", "setting": "[1]; serum, hour 72", "result": 57}, {"measurement": "IL-12 levels, test 2", "setting": "[1]; serum, hour 72", "result": 65}, {"measurement": "IL-12 levels, Total", "setting": "[1]; serum, total over hours 0-72", "result": 4030}, {"measurement": "toxicity", "setting": "[2]", "result": "does not induce toxicity"}, {"measurement": "solubility in an aqueous solution relative to the tested compounds of the invention", "setting": "[3]", "result": "more soluble"}, {"measurement": "IL-4 level, average", "setting": "[4]; hour 0", "result": 27}, {"measurement": "IL-4 level, test 1", "setting": "[4]; hour 0", "result": 27}, {"measurement": "IL-4 level, test 2", "setting": "[4]; hour 0", "result": 27}, {"measurement": "IL-4 level, average", "setting": "[4]; hour 2", "result": 1690}, {"measurement": "IL-4 level, test 1", "setting": "[4]; hour 2", "result": 1809}, {"measurement": "IL-4 level, test 2", "setting": "[4]; hour 2", "result": 1571}, {"measurement": "IL-4 level, average", "setting": "[4]; hour 6", "result": 204}, {"measurement": "IL-4 level, test 1", "setting": "[4]; hour 6", "result": 214}, {"measurement": "IL-4 level, test 2", "setting": "[4]; hour 6", "result": 194}, {"measurement": "IL-4 level, average", "setting": "[4]; hour 12", "result": 89}, {"measurement": "IL-4 level, test 1", "setting": "[4]; hour 12", "result": 78}, {"measurement": "IL-4 level, test 2", "setting": "[4]; hour 12", "result": 100}, {"measurement": "IL-4 level, average", "setting": "[4]; hour 24", "result": 50.5}, {"measurement": "IL-4 level, test 1", "setting": "[4]; hour 24", "result": 51}, {"measurement": "IL-4 level, test 2", "setting": "[4]; hour 24", "result": 50}, {"measurement": "IL-4 level, average", "setting": "[4]; hour 48", "result": 44}, {"measurement": "IL-4 level, test 1", "setting": "[4]; hour 48", "result": 46}, {"measurement": "IL-4 level, test 2", "setting": "[4]; hour 48", "result": 42}, {"measurement": "IL-4 level, average", "setting": "[4]; hour 72", "result": 12}, {"measurement": "IL-4 level, test 1", "setting": "[4]; hour 72", "result": 12}, {"measurement": "IL-4 level, test 2", "setting": "[4]; hour 72", "result": 12}, {"measurement": "IL-4 level, Total", "setting": "[4]; total over hours 0-72", "result": 2117}, {"measurement": "effect in patients with solid tumors", "setting": "[5]", "result": "little effect"}, {"measurement": "anti-malaria activity (inhibition of intra-hepatocytic stages)", "setting": "[6]", "result": "strong anti-malaria activity"}]}]}
